In patent US20180161291A1, “EXTENDED RELEASE UREA COMPOSITIONS” (Kato Pharmaceuticals, Inc., priority 2015, published 2018):

What was measured:
[1] = test system: human patients with single or multiple retinal tears; assay: Treatment of retinal tears: intravitreal urea 3 days before pneumatic Retinopexy; type: in vivo
Description: All patients received pneumatic Retinopexy treatment 3 days after intravitreal injection of 1.5 mg of urea in 50 μl of aqueous solution prepared according to the formulation set forth in Table II above. […] Within 3-7 days after urea injection, 11/12 patients had developed PVD, only 1/12 patients had not developed PVD. Within 90 days of the urea injection that one patient also developed PVD.
Within 3 days of treatment 9/12 patients had complete retinal reattachment and macular attachment, and within 7 days all 12 patients had complete retinal reattachment and macular attachment. […]
(Tornambe, P. E. et. al. Opthalmology, 1989; 96: 772-783).

[2] = test system: patient with stage 3 idiopathic macular hole; assay: Treatment of idiopathic macular hole: intravitreal urea followed by expandable gas; type: in vivo, human; details: for visual acuity: baseline 20/400; for size of the macular hole: baseline 450 μm
Description: The macular defect was classified as a stage 3 macular hole, and the patient's visual acuity was recorded at 20/400 at a baseline time point prior to urea treatment. […] Seven days after the intravitreal urea injection the patient was administered an intravitreal injection of 0.3 ml of expandable gas (C3 F8).
One week after administration of the gas, the size of the macular hole had decreased from 450 μm to a smaller size of 200 μm and the patient's vision had improved from a baseline visual acuity of 20/400 to 20/80. Two weeks post treatment the size of the macular hole had decreased from 450 μm to a smaller size of 90 μm and the patient's vision had improved from a baseline visual Acuity of 20/400 to 20170. Four weeks post treatment the size of the macular hole had decreased from 450 μm to a smaller size of 60 μm and the patient's vision had improved from a baseline visual acuity of 20/400 to 20/60.

[3] = test system: human patients with diabetes-related nonclearing vitreous hemorrhage; assay: Treatment of vitreous hemorrhage; type: in vivo; details: within 2 to 4 weeks after single intravitreal injection of 6% urea, 0.9% sodium chloride; seven patients
Description: The formulations and treatments disclosed herein are also effective to treat vitreous hemorrhage. In this example, seven human patients were treated for diabetes-related nonclearing vitreous hemorrhage. Each patient received a single intravitreal injection of 1001l of a formulation containing urea. The formulation used in this example contained 6% urea, 0.9% sodium chloride, and sterile water for injection (qs 100%).

[4] = test system: human patients requiring pars plana vitrectomy; assay: Treatment as adjunct to vitrectomy; type: in vivo
Description: In this example, five human patients requiring pars plana vitrectomy for various indications were treated one week prior to vitrectomy with a single intravitreal injection of 100 μl of a urea in aqueous solution. The formulation contained 6% urea, 0.9% sodium chloride, and sterile water for injection (qs 100%). All patients underwent routine vitrectomies 8 to 10 days after the urea injection. The minimum waiting time between the urea injection and the vitrectomy procedure is about 1 day to 3 days.
No vitrectomy cutter was used.

[5] = test system: patients with nonproliferative diabetic retinopathy; assay: Treatment of diabetic retinopathy; type: in vivo, human; details: within 2-4 weeks after single intravitreal injection of 3% urea, 0.9% sodium chloride; 69 patients
Source text: Sixty-nine patients with nonproliferative diabetic retinopathy were each administered a single intravitreal injection of 50 UI of a urea formulation containing 3% urea, 0.9% sodium chloride, and sterile water for injection.
The vitreous liquefaction and vitreous collapse in non-proliferative diabetic retinopathy patients would inhibit the growth and proliferation of the blood vessels, and thus inhibit the progression of diabetic retinopathy. All 69 (of the) patients were followed for six months following the procedure.

[6] = test system: human patients with retinitis pigmentosa; assay: Treatment of retinitis pigmentosa, double masked placebo controlled dose escalation study; type: in vivo
Description: A double masked placebo controlled, randomized, dose escalation study was done in 32 human patients with retinitis pigmentosa. All patients were treated with a single intravitreal injection of 50 μl of a urea-containing formulation. Three groups of patients received different concentrations of urea. One group received a formulation containing 1.5% urea, 0.9% sodium chloride, and sterile water for injection. A second group received an identical formulation except the formulation contained 3.0% urea. A third group received an identical formulation except the formulation contained 6.0% urea. A placebo group received 50 μl of 0.9% sodium chloride.
Forty-seven percent of the patient reported an increase of at least 3 lines of best corrected visual acuity measured by ETDRS charts, whereas, only 14% of the placebo patients reported an increase of at least 3 lines of best corrected visual acuity measured by ETDRS charts.
There was no dramatic increase in the visual field of the placebo control patients.

[7] = test system: non sighted patients with optic nerve damage caused by trauma and/or glaucoma; assay: Treatment of neuropathies, double masked placebo controlled dose escalation study; type: in vivo, human
Description: In accordance with the present disclosure, urea, thiourea, guanidine and possibly the other compounds of General Formula I above are effective to treat neuropathies 5 (e.g., disorders or damage to nerves). In this example, 33 non sighted patients with optic nerve damage caused by trauma and/or glaucoma, with visual acuity of light perception or no light perception were administered a urea-containing formulation, as disclosed herein. The study was a double masked placebo controlled, randomized, dose escalation study conducted with 33 human patients with optic nerve damage. Patients were randomized into 5 groups, Group 1 of 5 patients. Group 2 of 4 patients, Group 3 of 8 patients, Group 4 of 8 patients and Group 5 of 8 patients. Each patient received a single intravitreal injection of 50 UI of an aqueous treatment solution, as follows:
In Six patients the vision improved from No light perception to light perception, in 2 patients the vision improved from light perception to count fingers at 12 inches, in 2 patients the vision improved from no light perception to 20 20/400 and 20/800 vision and in 2 patients the vision improved from light perception to 20/600 and 20/800 vision. No patients in the placebo group reported any improvement in best corrected visual acuity as measured by ETDRS charts.

[8] = test system: patients with long standing optic nerve damage related to optic nerve tumors; assay: Treatment of optic nerve damage related to optic nerve tumors; type: in vivo, human
Description: In another study, three patients with long standing (6 months or longer) optic nerve damage related to optic nerve tumors were treated with a single intravitreal injection of 100 μl of a 6% urea containing formulation. All three patient treated reported a significant improvement in visual acuity after treatment. The patients' visual acuity improved from an average of Count Fingers at 12 inches to 20/200.

[9] = test system: non-diabetic patients with symptomatic VMA; assay: U.S. Phase Ib study: induction of PVD by multiple intravitreal injections of urea; type: in vivo, human; details: preliminary
Description: (§1) A study was conducted to examine effect of multiple intravitreal injections of small molecule formulation of urea on induction of posterior vitreous detachment (PVD).
(§2) Formulation: Sterile lyophilized Urea, USP-NF in buffered isotonic saline for intravitreal injections. Injectable: Reconstituted with 300 μL sterile water for injection. Dosage form: 100 μL dose contains 18 mg Urea, USP-NF (18% w/v) in glass vial. Storage: room temperature. Stability: stable >24 mo for lyophilized form. […] PVD rate: 25% targeted efficacy.
(§3) U.S. study design: 2:1 randomized, Phase Ib, dose ranging & safety study. Patient population: 30 non-diabetic patients with symptomatic VMA. Treatment: high dose arm (Day 0: 100 μL 18% w/v injection; Day 30: 100 μL 18% w/v injection for all unresolved patients); low dose arm (Day 0: 100 μL 9% w/v injection; Day 30: 100 μL 9% w/v injection for all unresolved patients). Follow-up: days 0, 2, 8, 15, 30, 60, 90 and 180.

[10] = test system: non-diabetic patients with symptomatic VMA; assay: Ex-U.S. Phase Ib study: induction of PVD by multiple intravitreal injections of urea; type: in vivo, human; details: preliminary
Description: as §1, §2
(§4) Ex-U.S. study design: 3:1 randomized, controlled, Phase Ib, POC & safety study. Patient population: non-diabetic patients with symptomatic VMA. Treatment arm: 20 patients. Control arm: 5 patients. Treatment: high dose arm (Day 0: 100 μL 36% w/v injection; Day 30: 100 μL 36% w/v injection for all unresolved patients); low dose arm (Day 0: 100 μL 18% w/v injection; Day 30: 100 μL 18% w/v injection for all unresolved patients). Follow-up: days 0, 2, 8, 15, 30, 45, 60 and 90.

[11] = test system: non-diabetic patients with symptomatic VMA; assay: Multiple intravitreal injections of urea: overall (pooled) results; type: in vivo, human
Description: as §1, §2, §3, §4
FIGS. 10 and 11 show the preliminary US and ex-US results, respectively. For the US study, 4 of 10 patients in high-dose group met primary endpoint, 1 of 7 patients in low-dose group met primary endpoint. For the ex-US study, 5 of 11 patients in high-dose group met primary endpoint, 3 of 6 patients in low-dose group met primary endpoint.

[12] = Storage stability of lyophilized urea formulation; type: physicochemical; details: storage at room temperature
Description: as §2

[13] = cited from earlier work
[14] = test system: vitreous and retina of injected eyes; details: cited from earlier work
[15] = one week after administration of the gas

## NC(N)=O [urea]
[1]; 1.5 mg urea in 50 μl, Table II formulation, 12 patients
  adverse effects of the intravitreal injection, ophthalmoscopic and biomicroscopic examination: no adverse effects
[1]; 6 months post Retinopexy
  patients with improvement of more than 2 lines of visual acuity (11 letters): 64%
[1]; follow up 90 days
  occurrence of new retinal tears with associated retinal detachment: none
[1]; time not printed in the sentence (1 month post Retinopexy by context)
  patients with improvement of more than 2 lines of visual acuity (11 letters): 64%
[1]; within 3-7 days after urea injection
  patients who developed PVD: 11/12
[1]; within 3 days of treatment
  patients with complete retinal reattachment and macular attachment: 9/12
[1]; within 7 days
  patients with complete retinal reattachment and macular attachment: 12 patients
[2]; 1.5 mg urea, Table III formulation
  adverse effects of the intravitreal injection, ophthalmoscopic and biomicroscopic examination: no adverse effects
[2]; four weeks post treatment
  visual acuity: 20/60
  size of the macular hole: 60 μm
[2]; [15]
  visual acuity: 20/80
  size of the macular hole: 200 μm
[2]; single intravitreal injection 1.5 mg urea, Table III formulation, one patient
  time to complete Posterior Vitreous Detachment (PVD): ≤ 7 days
[2]; two weeks post treatment
  size of the macular hole: 90 μm
[3]
  patients with clearance of vitreous hemorrhage sufficient to treat the retina with photocoagulation: All seven
[4]; 6% urea, 100 μl intravitreal one week prior to vitrectomy
  decrease in surgical time relative to patients who did not receive urea: 70%
[4]; by one week after single intravitreal 100 μl of 6% urea, 0.9% sodium chloride, five patients
  vitreous status at the time of vitrectomy: complete vitreous liquefaction and collapse
[5]
  patients with complete vitreous liquefaction and collapse: 69 patients
[6]; single intravitreal 50 μl of 1.5%, 3.0% or 6.0% urea, placebo 14%
  patients with an increase of at least 3 lines of best corrected visual acuity (ETDRS charts): Forty-seven
[6]; urea-treated patients
  average improvement in the patient's visual field: 10 degrees
[7]; in vivo
  patients whose vision improved from No light perception to light perception: Six
  patients whose vision improved from light perception to 20/600 and 20/800 vision: 2 patients
  patients whose vision improved from light perception to count fingers at 12 inches: 2 patients
  patients whose vision improved from no light perception to 20/400 and 20/800 vision: 2 patients
[7]; single intravitreal injection of 0.2%, 1.5%, 3.0% or 6.0% urea, no improvement in placebo group
  patients with an increase of best corrected visual acuity (ETDRS charts): Forty-three
[8]; from an average of Count Fingers at 12 inches
  average visual acuity after treatment: 20/200
[8]; single intravitreal 100 μl of 6% urea, three patients
  patients reporting a significant improvement in visual acuity after treatment: All three
[9]; high-dose group, 100 μL 18% w/v
  patients who met primary endpoint: 4 of 10
[9]; low-dose group, 100 μL 9% w/v
  patients who met primary endpoint: 1 of 7
[10]; high-dose group, 100 μL 36% w/v
  patients who met primary endpoint: 5 of 11
[10]; low-dose group, 100 μL 18% w/v
  patients who met primary endpoint: 3 of 6
[11]; after a second injection
  efficacy: 40%
[11]; non-ERM
  % resolution of VMA: 44%
[11]; up to 4 injections
  safety: drug related adverse effects: no drug related adverse effects
[11]; with one injection
  efficacy: 30%
[12]
  stability of lyophilized form: > 24 mo
[13]; 10% water solution
  pH of solution: 7.2
[13]; stored under dry conditions
  stability of the solid: stable at room temperature

## Collagenase
[14]; dispase: 15 minutes after injection
  reported adverse effect on the injected eye: disrupt the outer layers of the retina
[14]; in vivo
  reported effect on the vitreous: liquefy the vitreous
